Assay results published in patent US20030134859A1 (SANKYO COMPANY, LIMITED, priority 2000, published 2003).
Read-outs that look alike come from different tables or passages of the source.

Tests used:
Rat white adipocytes = assay: Inhibition of the differentiation of adipocytes (Oil Red O); type: cell-based; settings: 100 nM test compound, 5 days, Oil Red O ABS550, control = 100%, blank = 0%, Table 3; for activity at 0.1 µM: Rattus norvegicus, Adipocyte, 120 h, read-out: Rate of Differentiation (%)
Protocol: Rat white adipocytes contained in the white adipocyte culture kit purchased from HOKUDO were used. As the medium for proliferation and for differentiation-inducing, the medium contained in the white adipocyte culture kit purchased from HOKUDO was used. The cells in the present experiment were cultured in a CO2 incubator (37° C., 95% R.H., 5% CO2).
Immediately after arrival of the purchased cells, all medium for transportation was discarded and replaced with 5 ml of proliferation medium (/25 cm^2-flask) and the cells were cultured for one day. Then, a cell suspension was prepared with proliferation medium so as to be 83,000 cells/mL, and the cell suspension was plated into a type I 96-well collagen-coated microplate (SUMITOMO BAKELITE CO., ltd.) so as to be 5,000 cells/well (60 μL/well).
On the next day, all the proliferation medium was discarded and replaced with 147 μL/well of differentiation-inducing medium. Further, 1) in the group treated with the test compound, 3 μL/well of the solution, in which a test compound (100 μM) was dissolved in DMSO solution and diluted with differentiation-inducing medium by 20 times (final concentration of the test compound: 100 nM, final concentration of DMSO solution: 0.1% (v/v)), were added to the well where the cells were plated. 2) In the control group, 3 μL/well of DMSO solution that was diluted with differentiation-inducing medium by 20 times (final concentration of DMSO: 0.1% (v/v)) were added to the well where the cells were plated. Further, 3) in the blank group, 3 μL/well of DMSO solution that was diluted with differentiation-inducing medium by 20 times (final concentration: 0.1% (v/v)), was added to the blank well.
After culturing for 5 days, all differentiation-inducing medium was discarded and replaced with 60 μL of 10% (v/v) formaldehyde solution (for fixation) in each well and the cells were kept stationary for 20 min at room temperature. After this, the fixative solution was discarded and replaced with 60 μL of 0.2% (v/v) Triton X (Sigma-Aldrich Japan K. K.) solution in each well and kept stationary for 5 min at room temperature. Then all Triton X solution was discarded and replaced with 60 μL of 60% (v/v) isopropanol solution containing dissolved Oil Red O (Sigma-Aldrich Japan K. K.) so as to be 0.3%, which was adipose tissue staining solution, and the well was left stationary for 10 min at room temperature. After the adipose tissue staining solution was discarded, the well was washed twice with 60 JIL of 60% isopropanol solution. Then, 100 μL of the DMSO solution were added to each well and stirred for 5 min at room temperature, The absorbance was measured at 550 nm (ABS550) with a multi-plate reader (LabSystems), and the stained amount with Oil Red O was determined. The measured level at ABS550 in the control group was defined as 100%, while the level at ABS550 in the blank group was defined as 0%. The differentiation rate (%) of the adipocytes treated with the test compound was calculated.

leptin production = assay: Enhancing activity for leptin production in adipocytes (ELISA); type: cell-based, rat; settings: Rattus norvegicus, Adipocyte, leptin concentration as % of control group, read-out: Facilitating activity to produce leptin; for activity at 0.001 µM: 1 nm; for activity at 0.01 µM: 10 nm; for activity at 0.1 µM: 100 nm
Protocol: Hanks solution was used for collection of adipose tissue. The Hanks solution was prepared by filtration of a mixed solution (pH: 7.5) of 120 mM NaCl, 4.8 mM KCl, 0.74 mM MgSO4, 0.30 mM Na2HPO4, 0.40 mM KH2PO4, 20 mM HEPES, 0.05% (w/v) glucose, 2% (w/v) BSA (Sigma-Aldrich Japan K. K., Cat. No. A7888), 0.95 mM CaCl2, 4.17 mM NaHCO3 and 1% (v/v) penicillin-streptomycin liquid (GIBCO BRL, Cat. No. 15140-122). The adipocytes were cultured in Dulbecco's modified Eagle's medium (GIBCO BRL, Cat. No. 11995-040) mixed with DMEM/F-12 (GIBCO BRL, Cat. No. 11320-033) at a ratio of 1:1, and added 0.2% (v/v) Hanks solution, 0.2 μg/L sodium selenite (GIBCO BRL, Cat. No. 13012-018), 0.002% (v/v) ethanolamine, 25 mM HEPES and 1% (v/v) penicillin-streptomycin liquid (GIBCO BRL, Cat. No. 15140-122). As many as possible of the other reagents used were special grade. In this experiment, the cells were cultured in a CO2 incubator (37° C., 95% humidity, 5% CO2).
Male Wistar Imamichi rats of 6 weeks old were sacrificed by bleeding following decapitation, and adipose tissue was removed from the epididymis and sectioned after the vessels were removed in warmed Hanks solution at 37° C. and were weighed. One (1) mL of Hanks solution containing 10 mg collagenase (Wako Pure Chemical Industries, Ltd., 034-10533) was added to the adipose tissue prepared. The solution was transferred into a tube having a volume of 50 mL, and the cells were evenly dispersed by incubation under gentle shaking at 37° C., 90 rpm, for 50 min. Then 20 mL of Hanks solution were added and filtrated through Nylon-mesh with a mesh diameter of 200 μm for removal of undigested tissue pieces. The floating adipocytes were separated from sediments and substances located in the lower layer by centrifugation at 1,000 rpm for 1 min at room temperature. The sediment and 22 mL of the low layer were pulled out with a probe, and the floating adipocytes were recovered. This procedure was repeated twice with Hanks solution and for 4 times with the culture medium. After these procedures the adipocytes were suspended in the culture medium at a volume of 60 mL per 1 g of the adipose tissue weighed previously. 100 μL of the suspended solution were plated in each well of a 96-well microplate (ASAHI TECHNO GLASS Corp.) In the group treated with the test compound, 1 μL/well of DMSO solution containing the dissolved the test compound at concentrations of 200 μM, 20 μM, 2 μM and 0.2 μM (final concentrations of the test compound: 1 μM, 100 nM, 10 nM and 1 nM, respectively) was plated in each of the well. In the control group, 1 μL/well of DMSO (final concentration: 0.1% (v/v)) was plated in each well. The plate was placed stationary in a CO2 incubator for 1 hr or longer, and the contents in the solution were equilibrated at 37° C. After they were equilibrated, the solution in each well was stirred with a magnetic stirrer in a water bath and the suspended solution maintained at 37° C. was plated into each well of the plate at 100 μL/well. After incubation of the cells for 24 hr, the suspended solution of cells was filtrated through a filter for the microplate, MultiScreen (MILLOPORE, MDV-N65). The concentration of leptin in the filtrated solution was determined with ELISA methods by using a Rat Leptin Determination Kit-IBL (Immuno-Biological Laboratories Co., Ltd., Cat. No. 17195). The facilitating activity of the compound to produce leptin was calculated from the following equation based on the concentration of leptin determined.
Facilitating Activity of the Compound to Produce Leptin (%)=(A/B)×100
A: Concentration of Leptin in the Treated Group with the Test Compound.
B: Concentration of Leptin in the Control Group.

## CC(C)(C)OC(=O)N1CCN(c2ccc(NC(=O)c3cc([N+](=O)[O-])ccc3Cl)cc2)CC1 [Example 132, N-[4-(4-tert-Butoxycarbonylpiperazin-1-yl)phenyl]-(2-chloro-5-nitrophenyl)carboxamide]
Rat white adipocytes
  activity at 0.1 µM: 26.9%
Leptin production; 24 h
  activity at 1 µM: 127%
  activity at 0.001 µM: 123%
  activity at 0.01 µM: 137%
  activity at 0.1 µM: 119%

## O=C(Nc1ccc(-c2ccc(NC(=O)c3cc([N+](=O)[O-])ccc3Cl)cc2)cc1)c1cc([N+](=O)[O-])ccc1Cl [Example 163, 4-[4-[(2-Chloro-5-nitrophenyl)carbonylamino)phenyl]phenyl-(2-chloro-5-nitrophenyl)carboxamide]
Rat white adipocytes
  activity at 0.1 µM: 48%
Leptin production; 24 hr
  activity at 1 µM: 124%
  activity at 0.001 µM: 108%
  activity at 0.01 µM: 117%
  activity at 0.1 µM: 118%

## O=C(Nc1ccc(-c2ccc(-n3cccc3)cc2)cc1)c1cc([N+](=O)[O-])ccc1Cl [Example 186, N-[4-[4-(Pyrrol-1-yl)phenyl]phenyl]-(2-chloro-5-nitrophenyl)carboxamide]
Rat white adipocytes
  activity at 0.1 µM: 56.3%
Leptin production; 24 h
  activity at 1 µM: 133%
  activity at 0.01 µM: 118%
  activity at 0.1 µM: 117%

## CCCCCCN(CCC)c1ccc(-c2ccc(NC(=O)c3cc([N+](=O)[O-])ccc3Cl)cc2)cc1 [Example 198, N-[4-[4-(N-Hexyl-N-propylamino)phenyl]phenyl]-(2-chloro-5-nitrophenyl)carboxamide]
Rat white adipocytes
  activity at 0.1 µM: 48.2%
Leptin production; 24 h
  activity at 1 µM: 111%
  activity at 0.1 µM: 111%

## CN1c2ccccc2N=C(c2ccc(NC(=O)c3cc([N+](=O)[O-])ccc3Cl)cc2)c2cc3c(cc21)C(C)(C)CCC3(C)C [Example 240, N-[4-(5,7,7,10,10-Pentamethyl-7,8,9,10-tetrahydro-5H-5,13-diazabenzo[4,5]cyclohepta[1,2-b]naphthalen-12-yl)phenyl]-(2-chloro-5-nitrophenyl)carboxamide]
Rat white adipocytes
  activity at 0.1 µM: 35.2%

## NC(=O)Nc1ccc(-c2ccc(NC(=O)c3cc([N+](=O)[O-])ccc3Cl)cc2)cc1 [Example 243, N-[4-[4-(Aminocarbonylamino)phenyl]phenyl]-(2-chloro-5-nitrophenyl)carboxamide]
Rat white adipocytes
  activity at 0.1 µM: 41.1%

## COc1cccc(NC(=O)Nc2ccc(-c3ccc(NC(=O)c4cc([N+](=O)[O-])ccc4Cl)cc3)cc2)c1 [Example 247, N-[4-[4-[(3-Methoxyphenyl)aminocarbonylamino]phenyl]phenyl]-(2-chloro-5-nitrophenyl)carboxamide]
Rat white adipocytes
  activity at 0.1 µM: 54%

## O=C(NC(=S)Nc1ccc(-c2ccc(NC(=O)c3cc([N+](=O)[O-])ccc3Cl)cc2)cc1)c1ccccc1 [Example 250, N-[4-[4-(Benzoylaminothiocarbonylamino)phenyl]phenyl]-(2-chloro-5-nitrophenyl)carboxamide]
Rat white adipocytes
  activity at 0.1 µM: 40.8%

## Nc1nc(-c2ccc(NC(=O)c3cc([N+](=O)[O-])ccc3Cl)cc2)cs1 [Example 255, N-[4-(2-Aminothiazol-4-yl)phenyl]-(2-chloro-5-nitrophenyl)carboxamide]
Rat white adipocytes
  activity at 0.1 µM: 55%

## CC(C)(C)OC(=O)Nc1ccc2nc(NC(=O)c3cc([N+](=O)[O-])ccc3Cl)sc2c1 [Example 260, N-[(6-tert-Butoxycarbonylamino)benzothiazol-2-yl]-(2-chloro-5-nitrophenyl)carboxamide]
Rat white adipocytes
  Rate of Differentiation (%): 84.6%

## CC(=O)Nc1nc(-c2ccc(NC(=O)c3cc([N+](=O)[O-])ccc3Cl)cc2)cs1 [Example 265, N-[4-(2-Acetylaminothiazol-4-yl)phenyl]-(2-chloro-5-nitrophenyl)carboxamide]
Rat white adipocytes
  activity at 0.1 µM: 80.8%

## CC(=O)Nc1nc(-c2cccc(NC(=O)c3cc([N+](=O)[O-])ccc3Cl)c2)cs1 [Example 266, N-[3-(2-Acetylaminothiazol-4-yl)phenyl]-(2-chloro-5-nitrophenyl)carboxamide]
Rat white adipocytes
  activity at 0.1 µM: 63.5%

## CCOC(=O)NC(=S)NCCc1ccc(NC(=O)c2cc([N+](=O)[O-])ccc2Cl)cc1 [Example 272, N-[4-(2-Ethoxycarbonylaminothiocarbonylaminoethyl)phenyl]-(2-chloro-5-nitrophenyl)carboxamide]
Rat white adipocytes
  activity at 0.1 µM: 41.7%

## O=C(Nc1cccc(CCO)c1)c1cc([N+](=O)[O-])ccc1Cl [Example 275, N-[3-(2-Hydroxyethyl)phenyl]-(2-chloro-5-nitrophenyl)carboxamide]
Rat white adipocytes
  activity at 0.1 µM: 47.9%

## N-[4-(3-Methanesulfonylaminophenyl)thioazol-2-yl]-(2-chloro-5-nitrophenyl)carboxamide [Example 278]
Rat white adipocytes
  Rate of Differentiation (%): 68.6%
